According to ChEMBL document CHEMBL5500340, “Synthesis and biological activity of thiophene bioisosteres of natural styryl lactone goniofufurone and related compounds” (Eur J Med Chem, 2024):

What was measured:
[1] = system: HeLa; experiment: Antiproliferative activity against human HeLa cells by MTT colorimetric assay; type: functional, cell-based
[2] = system: Raji; experiment: Antiproliferative activity against human Raji cells by MTT colorimetric assay; type: functional, cell-based
[3] = system: HL-60; experiment: Antiproliferative activity against human HL-60 cells by MTT colorimetric assay; type: functional, cell-based
[4] = system: Jurkat; experiment: Antiproliferative activity against human Jurkat cells by MTT colorimetric assay; type: functional, cell-based
[5] = system: MRC5; experiment: Antiproliferative activity against human MRC5 cells by MTT colorimetric assay; type: functional, cell-based
[6] = system: MCF7; experiment: Antiproliferative activity against human MCF7 cells by MTT colorimetric assay; type: functional, cell-based
[7] = system: K562; experiment: Antiproliferative activity against human K562 cells by MTT colorimetric assay; type: functional, cell-based
[8] = system: A549; experiment: Antiproliferative activity against human A549 cells by MTT colorimetric assay; type: functional, cell-based
[9] = system: MDA-MB-231; experiment: Antiproliferative activity against human MDA-MB-231 cells by MTT colorimetric assay; type: functional, cell-based
[10] = system: Cell membrane; experiment: Induction of cell membrane damage in human K562 cells measured after 72 hrs by acridine orange and ethidium bromide staining based analysis relative to control; type: cell membranes
[11] = system: K562; experiment: Induction of apoptosis in human K562 cells assessed as morphological changes measured after 72 hrs relative to control; type: functional
[12] = system: Raji; experiment: Potency index, ratio of Doxorubicin IC50 to test compound IC50 for antiproliferative activity against human Raji cells by MTT colorimetric assay; type: functional
[13] = system: K562; experiment: Induction of cell cycle arrest in human K562 cells assessed as decrease in accumulation of cells at S phase measured after 72 hrs by PI staining based flow cytometry analysis relative to control; type: functional; set-up: scale not given: the % may be the effect or the level left
[14] = system: K562; experiment: Induction of cell cycle arrest in human K562 cells assessed as decrease in accumulation of cells at subG1 phase measured after 72 hrs by PI staining based flow cytometry analysis relative to control; type: functional; set-up: scale not given: the % may be the effect or the level left
[15] = system: A549; experiment: Potency index, ratio of Doxorubicin IC50 to test compound IC50 for antiproliferative activity against human A549 cells by MTT colorimetric assay; type: functional
[16] = system: K562; experiment: Induction of cell cycle arrest in human K562 cells assessed as increase in accumulation of cells at G2/M phase measured after 72 hrs by PI staining based flow cytometry analysis relative to control; type: functional

Structure (SMILES)	IC50 [1]	IC50 [2]	IC50 [3]	IC50 [4]	IC50 [6]	IC50 [7]	IC50 [8]	IC50 [9]	IC50 [5]	Activity [10]	Activity [11]	Ratio IC50 [12]	Activity [13]	Activity [14]	Ratio IC50 [15]	Activity [16]
O=C1C[C@H]2O[C@H](C(=O)c3cccs3)[C@H](O)[C@H]2O1	12.4 µM	11.4 µM	39.6 µM	25.3 µM	23.4 µM	18.4 µM	14.9 µM	8.93 µM	> 100 µM	–	–	–	–	–	–	–
O=C(/C=C/c1ccccc1)O[C@@H]1[C@H]2OC(=O)C[C@H]2O[C@@H]1[C@H](OC(=O)/C=C/c1ccccc1)c1cccs1	23.8 µM	11.1 µM	18.2 µM	10.3 µM	10.8 µM	8.36 µM	35.6 µM	12.3 µM	> 100 µM	–	–	–	–	–	–	–
O=C(/C=C/c1ccc(F)cc1)O[C@@H]1[C@H]2OC(=O)C[C@H]2O[C@@H]1[C@H](OC(=O)/C=C/c1ccc(F)cc1)c1cccs1	4.32 µM	22.1 µM	14.7 µM	10.7 µM	5.91 µM	0.99 µM	9.28 µM	9.55 µM	> 100 µM	–	–	–	–	–	–	–
O=C(/C=C/c1ccc(F)cc1)O[C@H](c1cccs1)[C@H]1O[C@@H]2CC(=O)O[C@@H]2[C@H]1O	4.63 µM	23.9 µM	18.9 µM	19.7 µM	10.5 µM	6.56 µM	13.3 µM	2.11 µM	> 100 µM	–	–	–	–	–	–	–
O=C1C[C@H]2O[C@H]([C@H](O)c3ccccc3)[C@H](O)[C@H]2O1	–	–	> 100 µM	–	–	–	–	–	> 100 µM	31.5%	145.1%	–	–	–	–	–
O=C1C[C@H]2O[C@H]([C@@H](O)c3ccccc3)[C@H](O)[C@H]2O1	–	–	–	–	–	–	–	–	–	57.3%	254.2%	–	–	>55%	–	–

More lines, in order of falling IC50 [3], values ahead:

IC50 [1]	IC50 [2]	IC50 [3]	IC50 [4]	IC50 [6]	IC50 [7]	IC50 [8]	IC50 [9]	Structure (SMILES)	IC50 [5]	Activity [10]	Activity [11]	Ratio IC50 [12]	Activity [13]	Activity [14]	Ratio IC50 [15]	Activity [16]
6.21 µM	15 µM	13 µM	2.65 µM	44.9 µM	5.78 µM	18.8 µM	98.8 µM	O=C1C[C@H]2O[C@H]([C@@H](O)c3cccs3)[C@H](O)[C@H]2O1	95.6 µM	–	–	–	–	–	–	–
1.59 µM	1.36 µM	8.46 µM	4.41 µM	2.63 µM	1.02 µM	6.58 µM	11.6 µM	CC1(C)O[C@H]2O[C@H]([C@@H](O)c3cccs3)[C@H](O)[C@H]2O1	> 100 µM	–	–	2	–	–	–	–
5.58 µM	20.5 µM	8.08 µM	34 µM	15.6 µM	6.34 µM	5.61 µM	16.3 µM	O=C(c1cccs1)[C@H]1OC(O)[C@H](O)[C@H]1O (some centres undefined)	> 100 µM	–	–	–	–	–	–	–
0.11 µM	5.97 µM	2.07 µM	1.01 µM	3.38 µM	0.03 µM	1.2 µM	2.88 µM	O=C1C[C@H]2O[C@H]([C@H](O)c3cccs3)[C@H](O)[C@H]2O1	> 100 µM	40.6%	196.5%	–	24.2%	>85%	4	31.2%
3.89 µM	5.36 µM	1.09 µM	1.69 µM	1.02 µM	2.67 µM	18.4 µM	5.21 µM	O=C1C[C@H]2O[C@@H](C(=O)c3cccs3)[C@H](O)[C@H]2O1	> 100 µM	–	–	–	–	–	–	–
2.85 µM	3.45 µM	1.05 µM	1.06 µM	4.34 µM	0.89 µM	7.32 µM	8.12 µM	CC1(C)O[C@H]2O[C@H]([C@H](O)c3cccs3)[C@H](O)[C@H]2O1	> 100 µM	–	–	–	–	–	–	–
